Experiment [1] concerns the target T1, human AT1R (angiotensin II type 1 receptor) (Homo sapiens, UniProt P30556).
T1 sequence (P30556 1-359): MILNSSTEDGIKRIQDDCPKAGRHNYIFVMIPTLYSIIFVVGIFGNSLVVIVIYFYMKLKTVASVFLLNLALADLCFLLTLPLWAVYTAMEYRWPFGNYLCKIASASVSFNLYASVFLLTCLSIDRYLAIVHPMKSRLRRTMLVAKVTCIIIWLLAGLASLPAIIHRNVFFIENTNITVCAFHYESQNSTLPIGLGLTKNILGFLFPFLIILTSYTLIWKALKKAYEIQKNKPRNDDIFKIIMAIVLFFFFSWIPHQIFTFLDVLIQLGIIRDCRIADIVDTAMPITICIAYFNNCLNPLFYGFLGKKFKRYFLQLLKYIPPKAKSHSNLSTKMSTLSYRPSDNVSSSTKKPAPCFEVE
Briefly: inhibition of AngII-induced beta-arrestin activation, cell impedance. In kind it is cell-based.

Experiment [2] concerns the target T1, human AT1R (angiotensin II type 1 receptor). Briefly: inhibition of AngII-induced G protein activation, cell impedance. In kind it is cell-based.

For the compound `CCOc1nc2cccc(C(=O)O)c2n1Cc1ccc(-c2ccccc2-c2noc(=O)[nH]2)cc1` [Azilsartan], the IC50 in experiment [1] and in experiment [2] was 1.6 nM throughout.
Regarding `CCOc1nc2cccc(C(=O)O)c2n1Cc1ccc(-c2ccccc2-c2nnn[nH]2)cc1` [Candesartan], the values for the half-inhibitory concentration (IC50) in experiment [1] and in experiment [2] were 0.7 nM and 2 nM, respectively.
The corresponding values for `CCCCc1ncc(/C=C(\Cc2cccs2)C(=O)O)n1Cc1ccc(C(=O)O)cc1` [Eprosartan] are 7.5 nM and 4.7 nM.
For `CCCc1nc(C(C)(C)O)c(C(=O)O)n1Cc1ccc(-c2ccccc2-c2nnn[nH]2)cc1` [Olmesartan], the IC50 in experiment [1] turned out to be 20.4 nM; in experiment [2], 14.5 nM.

The IC50 is the concentration at which inhibition is half-maximal. A lower IC50 goes with inhibition by little substance.

Values taken from article PMC4309955 (Scientific Reports, 2015).
